Values joined by “and” are separate entries in the source; they are usually repeats but may differ in a detail not shown here. Identical values can stand only once. Inconclusive results and toxic doses are left out.
System: P388 leukemia ip, CD2F1 mice, survival T/C
Test: NCI In Vivo Anticancer Drug Screen. Data for tumor model P388 Leukemia (intraperitoneal) in CD2F1 (CDF1) mice
Conditions: endpoint: median survival time, higher = longer survival
How it was run: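 Mice carrying the transplanted tumor received test compound or vehicle. Survival was recorded in each group, and the value is the treated-group measurement divided by that of the vehicle-treated control group.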

[1] = dose: 50.0 mg/kg/injection, schedule: Q01DX005 (ip), vehicle: Klucel (hydroxypropylcellulose) (HPC)
[2] = dose: 100.0 mg/kg/injection, schedule: Q01DX005 (ip), vehicle: Klucel (hydroxypropylcellulose) (HPC)
[3] = dose: 200.0 mg/kg/injection, schedule: Q01DX005 (ip), vehicle: Klucel (hydroxypropylcellulose) (HPC)
[4] = dose: 50.0 mg/kg/injection, schedule: Q01DX009 (ip), vehicle: Klucel (hydroxypropylcellulose) (HPC)
[5] = dose: 100.0 mg/kg/injection, schedule: Q01DX009 (ip), vehicle: Klucel (hydroxypropylcellulose) (HPC)
[6] = dose: 200.0 mg/kg/injection, schedule: Q01DX009 (ip), vehicle: Klucel (hydroxypropylcellulose) (HPC)
[7] = dose: 100.0 mg/kg/injection, schedule: Q01DX001 (ip), vehicle: saline with Tween-80
[8] = dose: 200.0 mg/kg/injection, schedule: Q01DX001 (ip), vehicle: saline with Tween-80
[9] = dose: 400.0 mg/kg/injection, schedule: Q01DX001 (ip), vehicle: saline with Tween-80

## CC/C=C/C(O)C(O)C1=C(C)C(=O)C2(O1)C(=O)NC(OC)(C(=O)c1ccccc1)C2O (centres undefined)
dose: 12.5 mg/kg/injection, schedule: Q01DX005 (ip), vehicle: Klucel (hydroxypropylcellulose) (HPC)
  T/C: 99 % of control
dose: 25.0 mg/kg/injection, schedule: Q01DX005 (ip), vehicle: Klucel (hydroxypropylcellulose) (HPC)
  T/C: 99 % of control
[1]
  T/C: 94 % of control
[2]
  T/C: 96 % of control
dose: 150.0 mg/kg/injection, schedule: Q01DX005 (ip), vehicle: Klucel (hydroxypropylcellulose) (HPC)
  T/C: 103 % of control
[3]
  T/C: 106 % of control

## CCN(CC)CCOC(=O)C(OCCOc1ccccc1)(c1ccccc1)c1ccccc1
[1]
  T/C: 117 % of control
[2]
  T/C: 117 % of control

## O=C(O)Cc1ccc2c(c1)Cc1cccnc1O2
[4]
  T/C: 108 % of control
[5]
  T/C: 96 % of control
[6]
  T/C: 119 % of control

## O=CNc1cccnc1C1OCCO1
[1]
  T/C: 98 % of control
[2]
  T/C: 102 % of control
[3]
  T/C: 102 % of control

## O=c1cc(-c2ccccc2)[nH]c2c1CCCC2
dose: 100.0 mg/kg/injection, schedule: Q01DX009 (ip), vehicle: saline with Tween-80
  T/C: 116 % of control
dose: 400.0 mg/kg/injection, schedule: Q01DX009 (ip), vehicle: saline with Tween-80
  T/C: 176 % of control and 186 % of control

## CCC[CH2][Hg][Cl]
dose: 3.3 mg/kg/injection, schedule: Q01DX009 (ip), vehicle: other
  T/C: 95 % of control
dose: 5.0 mg/kg/injection, schedule: Q01DX009 (ip), vehicle: other
  T/C: 100 % of control
dose: 7.5 mg/kg/injection, schedule: Q01DX009 (ip), vehicle: other
  T/C: 118 % of control

## CCC1(C2OC(C3OC(O)(CO)C(C)CC3C)CC2C)CCC(C2(C)CCC3(CC(O)C(C)C(C(C)C(OC)C(C)C(=O)O)O3)O2)O1 (centres undefined)
dose: 3.13 mg/kg/injection, schedule: Q01DX005 (ip), vehicle: saline with Tween-80
  T/C: 110 % of control and 112 % of control
dose: 6.25 mg/kg/injection, schedule: Q01DX005 (ip), vehicle: saline with Tween-80
  T/C: 108 % of control and 111 % of control and 118 % of control
dose: 12.5 mg/kg/injection, schedule: Q01DX005 (ip), vehicle: saline with Tween-80
  T/C: 120 % of control

## CNC(=O)OCc1nn(-c2ccccc2)c(C)c1COC(=O)NC
dose: 12.5 mg/kg/injection, schedule: Q01DX009 (ip), vehicle: distilled water + Tween-80
  T/C: 97 % of control
dose: 25.0 mg/kg/injection, schedule: Q01DX009 (ip), vehicle: distilled water + Tween-80
  T/C: 97 % of control
dose: 50.0 mg/kg/injection, schedule: Q01DX009 (ip), vehicle: distilled water + Tween-80
  T/C: 97 % of control
dose: 100.0 mg/kg/injection, schedule: Q01DX009 (ip), vehicle: distilled water + Tween-80
  T/C: 92 % of control
dose: 200.0 mg/kg/injection, schedule: Q01DX009 (ip), vehicle: distilled water + Tween-80
  T/C: 92 % of control

## Cc1cnc2cc(-c3ccccc3)[nH]c2n1
dose: 15.0 mg/kg/injection, schedule: Q01DX005 (ip), vehicle: Klucel (hydroxypropylcellulose) (HPC)
  T/C: 90 % of control
dose: 30.0 mg/kg/injection, schedule: Q01DX005 (ip), vehicle: Klucel (hydroxypropylcellulose) (HPC)
  T/C: 87 % of control
dose: 60.0 mg/kg/injection, schedule: Q01DX005 (ip), vehicle: Klucel (hydroxypropylcellulose) (HPC)
  T/C: 88 % of control

## N#CCc1c(F)c(F)c(F)c(F)c1F
dose: 30.0 mg/kg/injection, schedule: Q01DX005 (ip), vehicle: saline with Tween-80
  T/C: 100 % of control
dose: 60.0 mg/kg/injection, schedule: Q01DX005 (ip), vehicle: saline with Tween-80
  T/C: 99 % of control and 108 % of control

## O=C1C(=C2C=CN(CCN3CCCC3)C=C2)C(=O)c2ccccc21
[4]
  T/C: 94 % of control
[5]
  T/C: 99 % of control
[6]
  T/C: 99 % of control

## CC(=O)C1C(=O)C(=O)N(c2ccc(F)cc2)C1=O (centres undefined)
[7]
  T/C: 103 % of control
[8]
  T/C: 99 % of control
[9]
  T/C: 98 % of control

## Cc1ccc(S(=O)(=O)OCCOc2ccc(-c3nc4ccccc4[nH]3)cc2)cc1
[7]
  T/C: 92 % of control
[8]
  T/C: 90 % of control
[9]
  T/C: 101 % of control

## Cc1nc(Nc2ccccc2C)c2ccsc2n1
[1]
  T/C: 91 % of control
[2]
  T/C: 87 % of control

## CC(C)(O)/C=C/C(=O)[C@](C)(O)[C@H]1[C@H](O)C[C@@]2(C)[C@@H]3CC=C4[C@@H](C=C(O)C(=O)C4(C)C)[C@]3(C)C(=O)C[C@]12C
dose: 0.25 mg/kg/injection, schedule: Q01DX005 (ip), vehicle: water
  T/C: 112 % of control
dose: 0.25 mg/kg/injection, schedule: Q01DX010 (ip), vehicle: saline
  T/C: 100 % of control
dose: 0.5 mg/kg/injection, schedule: Q01DX005 (ip), vehicle: water
  T/C: 100 % of control
dose: 0.5 mg/kg/injection, schedule: Q01DX010 (ip), vehicle: saline
  T/C: 104 % of control
dose: 1.0 mg/kg/injection, schedule: Q01DX005 (ip), vehicle: water
  T/C: 105 % of control
dose: 1.0 mg/kg/injection, schedule: Q01DX010 (ip), vehicle: saline
  T/C: 109 % of control
dose: 2.0 mg/kg/injection, schedule: Q01DX005 (ip), vehicle: water
  T/C: 105 % of control

## CCCN(CCC)C(C)C(O)c1ccc2cc(Br)c3ccccc3c2c1 (centres undefined)
dose: 50.0 mg/kg/injection, schedule: Q01DX005 (ip), vehicle: saline with Tween-80
  T/C: 98 % of control
dose: 100.0 mg/kg/injection, schedule: Q01DX005 (ip), vehicle: saline with Tween-80
  T/C: 99 % of control
dose: 200.0 mg/kg/injection, schedule: Q01DX005 (ip), vehicle: saline with Tween-80
  T/C: 100 % of control

## O=C(NC(C(=O)O)C1CC(Cl)=NO1)OCC1c2ccccc2-c2ccccc21 (centres undefined)
dose: 3.1 mg/kg/injection, schedule: Q04DX003 (ip), vehicle: other
  T/C: 104 % of control
dose: 6.2 mg/kg/injection, schedule: Q04DX003 (ip), vehicle: other
  T/C: 116 % of control
dose: 12.5 mg/kg/injection, schedule: Q04DX003 (ip), vehicle: other
  T/C: 120 % of control
dose: 25.0 mg/kg/injection, schedule: Q04DX003 (ip), vehicle: other
  T/C: 120 % of control and 123 % of control
dose: 100.0 mg/kg/injection, schedule: Q04DX003 (ip), vehicle: other
  T/C: 157 % of control
dose: 200.0 mg/kg/injection, schedule: Q04DX003 (ip), vehicle: other
  T/C: 150 % of control

Reference: PubChem BioAssay AID330 (DTP/NCI, 2004)
